Laboratory results reported in ChEMBL document CHEMBL4428041, “Identification and SAR Evaluation of Hemozoin-Inhibiting Benzamides Active against Plasmodium falciparum” (J Med Chem, 2016).
Values after ≈ are worked out from the molar mass of the structure shown. Active and inactive are the calls of the source. No cut-off for these calls is given here.

Key:
Hemozoin [1] = assay: Inhibition of beta-hematin in water/NP40/DMSO solution incubated for 5 to 6hrs by detergent-mediated pyridine-ferrichrome method
Plasmodium falciparum [2] = assay: Antimalarial activity against CQ-sensitive Plasmodium falciparum NF54 infected in human type O+ erythrocytes assessed as growth inhibition incubated for 48 hrs by LDH assay; type: functional, organism-based; details: NF54, 48 h
Plasmodium falciparum [3] = assay: Antimalarial activity against CQ-sensitive Plasmodium falciparum D10 infected in human type O+ erythrocytes assessed as growth inhibition incubated for 48 hrs by LDH assay; type: functional, organism-based; details: D10, 48 h
Hemozoin [4] = assay: Inhibition of hemozoin formation in CQ-sensitive Plasmodium falciparum D10 infected in human type O+ erythrocytes assessed as increase in free heme incubated for 32 hrs by cell fractionation assay; type: cell-based; details: Erythrocyte
Hemozoin [5] = assay: Inhibition of hemozoin formation in CQ-sensitive Plasmodium falciparum D10 infected in human type O+ erythrocytes assessed as decrease in hemozoin formation incubated for 32 hrs by cell fractionation assay; type: cell-based; details: Erythrocyte
Hemozoin [6] = assay: Inhibition of hemozoin formation in Plasmodium falciparum trophozoites infected in human erythrocytes assessed as induction of irregularly scattered and shapeless hemozoin clumps inside swollen digestive vacuole at 0.22 ug/ml incubated for 32 hrs by transmission electron microscopic analysis relative to control; type: cell-based; details: Erythrocyte
[7] = Kinetic solubility of compound at pH 2 after 2 hrs by shake flask assay; type: physicochemical; details: buffer, read-out: Kinetic_solubility
[8] = Kinetic solubility of compound in at pH 6.5 after 2 hrs by shake flask assay; type: physicochemical; details: buffer, read-out: Kinetic_solubility
[9] = Kinetic solubility of compound FaSSIF at pH 6.5 after 2 hrs by shake flask assay; type: physicochemical; details: read-out: Kinetic_solubility
[10] = Half life in human liver microsomes at 0.1 uM in presence of NADPH by LC-MS/MS analysis; type: ADME, Microsome
[11] = Half life in rat liver microsomes at 0.1 uM in presence of NADPH by LC-MS/MS analysis; type: ADME, Microsome
[12] = Half life in mouse liver microsomes at 0.1 uM in presence of NADPH by LC-MS/MS analysis; type: ADME, Microsome
[13] = Clearance in human liver microsomes assessed per mg of protein at 0.1 uM by LC-MS/MS analysis; type: ADME, Microsome; details: read-out: CLH
[14] = Clearance in rat liver microsomes assessed per mg of protein at 0.1 uM by LC-MS/MS analysis; type: ADME, Microsome; details: read-out: CLH
[15] = Clearance in mouse liver microsomes assessed per mg of protein at 0.1 uM by LC-MS/MS analysis; type: ADME, Microsome; details: read-out: CLH
[16] = Extraction ratio in human liver microsomes assessed per mg of protein at 0.1 uM by LC-MS/MS analysis; type: ADME, Microsome; details: read-out: ERH
[17] = Extraction ratio in rat liver microsomes assessed per mg of protein at 0.1 uM by LC-MS/MS analysis; type: ADME, Microsome; details: read-out: ERH
[18] = Extraction ratio in mouse liver microsomes assessed per mg of protein at 0.1 uM by LC-MS/MS analysis; type: ADME, Microsome; details: read-out: ERH
Plasmodium falciparum [19] = assay: Antimalarial activity against CQ-resistant Plasmodium falciparum K1 infected in human type O+ erythrocytes assessed as growth inhibition incubated for 48 hrs by LDH assay; type: functional, organism-based; details: K1, 48 h
CHO = assay: Cytotoxicity against CHO cells by MTT assay; type: cell-based; details: Cricetulus griseus
[20] = Selectivity index, ratio of IC50 for cytotoxicity against CHO cells to IC50 for CQ-sensitive Plasmodium falciparum NF54 infected in human type O+ erythrocytes; type: toxicity, cell-based; details: Chinese hamster, read-out: Ratio IC50
Ferriprotoporphyrin IX [21] = system: Ferriprotoporphyrin IX
Description: Binding affinity to Fe(3)PP9 in hematin solution at pH 7.5 by titration-based UV-vis spectrophotometrical analysis

Ferriprotoporphyrin IX [22] = assay: Binding affinity to Fe(3)PP9 solution assessed as ferriprotoporphyrin 9 complex formation by measuring pink precipitate formation at <=5500 uM
Ferriprotoporphyrin IX [23] = assay: Binding affinity to Fe(3)PP9 solution assessed as ferriprotoporphyrin 9 complex formation by measuring compound concentration causing pink precipitate formation at <=5500 uM
Hemozoin [24] = assay: Inhibition of beta-hematin incubated for 6 hrs by NP40 detergent-mediated assay
Plasmodium falciparum [25] = assay: Antimalarial activity against Plasmodium falciparum D6 infected in red blood cells assessed as growth inhibition by SYBR green1 fluorescence-based assay; type: functional, organism-based

Compound: O=C(Nc1ccccc1)c1cc([N+](=O)[O-])cc([N+](=O)[O-])c1
- IC50 (Hemozoin [1]): 22 µM
- IC50 (Plasmodium falciparum [2]): 5 µM

Compound: Cc1cc(C(=O)Nc2ccccc2)cc(C(=O)Nc2ccccc2)c1
- IC50 (Hemozoin [1]): > 1000 µM
- IC50 (Plasmodium falciparum [2]): 146 µM

Compound: O=C(Nc1cccnc1)c1cc(C(=O)Nc2cccnc2)cc([N+](=O)[O-])c1
- IC50 (Hemozoin [1]): 4.7 µM
- IC50 (Plasmodium falciparum [2]): 1.32 µM

Compound: CC(C)(C)c1cc(C(=O)Nc2cccnc2)cc(C(=O)Nc2cccnc2)c1
- IC50 (Hemozoin [1]): 6.8 µM
- IC50 (Plasmodium falciparum [3]): 0.7 µM
- IC50 (Plasmodium falciparum [2]): 0.6 µM
- inhibition (Hemozoin [4]): Dose-dependent effect
- inhibition (Hemozoin [5]): Dose-dependent effect
- Activity (Hemozoin [6]): Active
- solubility kinetic at 2 h [7]: 197 µM (≈ 73.8 µg/mL)
- solubility kinetic at 2 h [8]: 92.7 µM (≈ 34.7 µg/mL)
- solubility kinetic at 2 h [9]: 154 µM (≈ 57.5 µg/mL)
- half-life at 0.1 µM [10]: 2.37 h
- half-life at 0.1 µM [11]: 1.55 h
- half-life at 0.1 µM [12]: 0.873 h
- microsomal CLint at 0.1 µM [13]: 14.1 µL/min/mg
- microsomal CLint at 0.1 µM [14]: 33.5 µL/min/mg
- microsomal CLint at 0.1 µM [15]: 130 µL/min/mg
- hepatic extraction ratio at 0.1 µM [16]: 0.4
- hepatic extraction ratio at 0.1 µM [17]: 0.4
- hepatic extraction ratio at 0.1 µM [18]: 0.6
- IC50 (Plasmodium falciparum [19]): 1.7 µM
- IC50 (CHO): 185 µM
- selectivity ratio [20]: 308

Compound: C=C[C@H]1CN2CC[C@H]1C[C@@H]2[C@@H](O)c1ccnc2ccc(OC)cc12
- log K (Ferriprotoporphyrin IX [21]): 5.26

Compound: O=C(Nc1ccccn1)c1cc([N+](=O)[O-])cc([N+](=O)[O-])c1
- IC50 (Hemozoin [1]): 134 µM
- IC50 (Plasmodium falciparum [3]): 24 µM
- IC50 (Plasmodium falciparum [2]): 22 µM

Compound: N#Cc1cc(C(=O)Nc2ccncc2)cc(C(=O)Nc2ccncc2)c1
- IC50 (Hemozoin [1]): 6.34 µM
- IC50 (Plasmodium falciparum [3]): 2 µM
- IC50 (Plasmodium falciparum [2]): 1.9 µM

Compound: O=C(Nc1ccccc1)c1cccc(C(=O)Nc2ccccc2)n1
- IC50 (Hemozoin [1]): > 1000 µM
- IC50 (Plasmodium falciparum [2]): > 315 µM

Compound: COc1cc(C(=O)Nc2ccncc2)cc(C(=O)Nc2ccncc2)c1
- IC50 (Hemozoin [1]): 22 µM
- IC50 (Plasmodium falciparum [2]): 3 µM

Compound: O=C(Nc1ccccc1)c1cc(C(=O)Nc2ccccc2)cc(C(=O)Nc2ccccc2)c1
- IC50 (Hemozoin [1]): 21 µM
- IC50 (Plasmodium falciparum [3]): > 42 µM
- IC50 (Plasmodium falciparum [2]): 81 µM

Compound: N#Cc1cc(C(=O)Nc2ccccc2)cc(C(=O)Nc2ccccc2)c1
- IC50 (Hemozoin [1]): 4.4 µM
- IC50 (Plasmodium falciparum [3]): 5.2 µM

Compound: O=C(Nc1ccncc1)c1ccc([N+](=O)[O-])cc1[N+](=O)[O-]
- IC50 (Hemozoin [1]): > 5500 µM
- Activity (Ferriprotoporphyrin IX [22]): inactive
- Activity (Ferriprotoporphyrin IX [23]): inactive

Compound: Cc1cc(C(=O)Nc2ccncc2)cc(C(=O)Nc2ccncc2)c1
- IC50 (Hemozoin [1]): 8 µM
- IC50 (Plasmodium falciparum [2]): 2.5 µM
- log K (Ferriprotoporphyrin IX [21]): 3.92

Compound: COc1cc(C(=O)Nc2ccccc2)cc(C(=O)Nc2ccccc2)c1
- IC50 (Hemozoin [1]): > 1000 µM
- IC50 (Plasmodium falciparum [2]): 37 µM

Compound: O=C(Nc1cccnc1)c1cc([N+](=O)[O-])cc([N+](=O)[O-])c1
- IC50 (Hemozoin [1]): 13 µM
- IC50 (Plasmodium falciparum [3]): 2.3 µM
- IC50 (Plasmodium falciparum [2]): 5 µM
- inhibition (Hemozoin [4]): Dose-dependent effect
- inhibition (Hemozoin [5]): Dose-dependent effect

Compound: CCN(CC)CCCC(C)Nc1ccnc2cc(Cl)ccc12 (stereo not drawn) [CHLOROQUINE]
- IC50 (Hemozoin [1]): 31.5 µM

Compound: O=C(Nc1ccncc1)c1cc([N+](=O)[O-])cc([N+](=O)[O-])c1
- IC50 (Hemozoin [1]): 10.9 µM
- IC50 (Plasmodium falciparum [3]): 2.4 µM
- IC50 (Plasmodium falciparum [2]): 2.3 µM
- IC50 (Hemozoin [24]): 9.04 µM
- IC50 (Plasmodium falciparum [25]): 4.76 µM

Compound: O=C(Nc1ccccc1)c1ccc([N+](=O)[O-])cc1
- IC50 (Hemozoin [1]): > 5500 µM
- Activity (Ferriprotoporphyrin IX [22]): inactive
- Activity (Ferriprotoporphyrin IX [23]): inactive

Compound: O=C(Nc1ccncc1)c1ccccc1
- IC50 (Hemozoin [1]): > 5500 µM
- Activity (Ferriprotoporphyrin IX [22]): inactive
- Activity (Ferriprotoporphyrin IX [23]): inactive
